The text below walks through data of PubChem BioAssay (NCI).

Test systems include OVCAR-8 ovarian; UACC-62 melanoma; HOP-92 NSCLC; DU-145 prostate; A498 renal; MCF7 breast; HCT-116 colon; MALME-3M melanoma; KM12 colon; NCI-H23 lung; SNB-19 CNS.
Common to all, as to test: inhibition of tumour cell growth, NCI panel, 48 h

Molecules are shown by their SMILES.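 Exposure lasted 48 hours, with cells grown in 96-well plates and compounds tested at five concentrations. TGI marks complete inhibition of growth.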

As for `O=c1c(Cc2ccc(Cl)cc2)nnc2sc(-c3ccc(-c4ccc(Cl)cc4Cl)o3)nn12`, the TGI in the assay with OVCAR-8 ovarian, with UACC-62 melanoma, in the assay on HOP-92 NSCLC, with DU-145 prostate, in the assay on A498 renal and in the assay on MCF7 breast was > 100 µM throughout. In addition, the TGI with HCT-116 colon, in the assay with MALME-3M melanoma, in the assay on KM12 colon, in the assay on NCI-H23 lung and with SNB-19 CNS was > 100 µM throughout.
As for `Brc1cccc(C2ON=C(c3ccccc3)N2C23CC4CC(CC(C4)C2)C3)c1` (stereo unspecified), the TGI with OVCAR-8 ovarian, in the assay with UACC-62 melanoma, with HOP-92 NSCLC, in the assay with DU-145 prostate, with A498 renal and in the assay on MCF7 breast was > 10 µM each time. Besides, the TGI in the assay with HCT-116 colon, in the assay on MALME-3M melanoma, with KM12 colon, in the assay with NCI-H23 lung and in the assay on SNB-19 CNS was > 10 µM each time.
Take `O=C1C(c2c(O)[nH]c3ccc(Br)cc23)=Nc2ccc(Br)cc21`: the TGI with OVCAR-8 ovarian was 81.3 µM; with UACC-62 melanoma it was > 100 µM; in the assay with HOP-92 NSCLC, > 100 µM; in the assay with DU-145 prostate it was 82.3 µM; in the assay on A498 renal it was > 100 µM; with MCF7 breast it was 43.1 µM. In addition, the TGI is 34.6 µM with HCT-116 colon; > 100 µM with MALME-3M melanoma; > 100 µM with KM12 colon; 88 µM in the assay on NCI-H23 lung; 92.4 µM in the assay on SNB-19 CNS.
For the compound `COC1C(N(C)C)=C(c2ccccc2)C(=O)N2CCc3ccccc3C12` (stereo unspecified), the TGI in the assay with OVCAR-8 ovarian, in the assay on UACC-62 melanoma, with HOP-92 NSCLC, with DU-145 prostate, with A498 renal and in the assay with MCF7 breast was > 100 µM throughout. Moreover, the TGI in the assay on HCT-116 colon, in the assay on MALME-3M melanoma, with KM12 colon, in the assay on NCI-H23 lung and in the assay with SNB-19 CNS was > 100 µM in each case.
As for `CC1OC(OC2C(O[C@H]3CC[C@@]4(C)C(=CC[C@H]5[C@@H]6C[C@@H]7O[C@]8(CC[C@@H](C)CO8)[C@@H](C)[C@@H]7[C@@]6(C)CC[C@@H]54)C3)OC(CO)C(O)C2O)C(O)C(O)C1O` (stereo partly specified), the TGI with OVCAR-8 ovarian stood at 3.63 µM; with UACC-62 melanoma it was 2.7 µM; in the assay on HOP-92 NSCLC, 6.17 µM; with DU-145 prostate, 2.53 µM; with A498 renal, 2.98 µM; in the assay on MCF7 breast, 4.12 µM. For the same compound, the TGI in the assay with HCT-116 colon came out at 3.95 µM; in the assay with MALME-3M melanoma, 6.65 µM; with KM12 colon, 2.19 µM; in the assay with NCI-H23 lung, 5.61 µM; with SNB-19 CNS, 2.38 µM.
In the case of `COc1ccc(NCC(=O)Nn2c(-c3ccccc3)nc3ccccc3c2=O)cc1`, the TGI in the assay with OVCAR-8 ovarian is > 100 µM; in the assay on UACC-62 melanoma it was 32.3 µM; with HOP-92 NSCLC it was > 100 µM; in the assay on DU-145 prostate it was > 100 µM; in the assay with A498 renal it was 88.6 µM; in the assay with MCF7 breast, 41.2 µM. Besides, the TGI is > 10 µM in the assay with HCT-116 colon; 70.2 µM with MALME-3M melanoma; > 100 µM in the assay with KM12 colon; > 100 µM with NCI-H23 lung; > 100 µM in the assay on SNB-19 CNS.
`CC(=O)OCC1OC(n2c(Br)nc3c2c(=O)n(C)c(=O)n3C)C(OC(C)=O)C1OC(C)=O` (stereo unspecified): the TGI with OVCAR-8 ovarian, in the assay with UACC-62 melanoma, in the assay with HOP-92 NSCLC, with DU-145 prostate, in the assay on A498 renal and in the assay with MCF7 breast was > 100 µM throughout. Besides, the TGI in the assay with HCT-116 colon, in the assay on MALME-3M melanoma, with KM12 colon, with NCI-H23 lung and with SNB-19 CNS was > 100 µM in each case.
Turning to `Cc1nc2sc(C(=O)c3ccc(Cl)cc3)c(N)c2c(-c2ccccc2Cl)c1C(=O)Nc1ccccc1`, the TGI with OVCAR-8 ovarian was found to be 47.1 µM; in the assay on UACC-62 melanoma, 29.6 µM; with HOP-92 NSCLC, 15.9 µM; in the assay with DU-145 prostate, 61 µM; with A498 renal, 48 µM; with MCF7 breast, 53.8 µM. Further, the TGI was determined as 26.8 µM with HCT-116 colon; 29.2 µM in the assay on MALME-3M melanoma; 50 µM with KM12 colon; 38.9 µM in the assay on NCI-H23 lung; 71.2 µM in the assay on SNB-19 CNS.
Consider `COc1nc2ccc(COc3ccc(C(=O)O)cc3)cc2nc1OC`, for which the TGI with OVCAR-8 ovarian, in the assay with UACC-62 melanoma, with HOP-92 NSCLC, in the assay with DU-145 prostate, in the assay with A498 renal and in the assay on MCF7 breast was > 100 µM each time. Further, the TGI in the assay on HCT-116 colon, with MALME-3M melanoma, in the assay with KM12 colon, with NCI-H23 lung and in the assay on SNB-19 CNS was > 100 µM throughout.
For the compound `O=C(Cn1c(C(=O)c2ccccc2)nc2ccccc21)c1ccccc1`, the TGI in the assay with OVCAR-8 ovarian, in the assay with UACC-62 melanoma, in the assay with HOP-92 NSCLC, in the assay on DU-145 prostate, in the assay on A498 renal and with MCF7 breast was > 100 µM in each case. The TGI with HCT-116 colon, in the assay on MALME-3M melanoma, in the assay with KM12 colon, in the assay on NCI-H23 lung and in the assay on SNB-19 CNS was > 100 µM each time.
`COC1(CC[C@@H](C)COC2OC(CO)C(O)C(O)C2O)O[C@H]2C[C@H]3[C@@H]4CC=C5C[C@@H](OC6OC(CO)C(O)C(OC7OC(CO)C(O)C(O)C7O)C6OC6OC(C)C(O)C(O)C6O)CC[C@]5(C)[C@H]4CC[C@]3(C)[C@H]2[C@@H]1C` (stereo partly specified): the TGI is 59.7 µM in the assay with OVCAR-8 ovarian; > 35.7 µM in the assay on UACC-62 melanoma; 12.3 µM in the assay with HOP-92 NSCLC; 14.7 µM with DU-145 prostate; 26.9 µM in the assay on A498 renal; 37.6 µM in the assay with MCF7 breast. In addition, the TGI was found to be 34.9 µM in the assay on HCT-116 colon; 9.29 µM in the assay on MALME-3M melanoma; 4.36 µM in the assay on KM12 colon; 28.2 µM with NCI-H23 lung; 21.2 µM with SNB-19 CNS.
